Measured values from US6894068B2, “Substituted benzimidazoles as non-nucleoside inhibitors of reverse transcriptase” (The United States of America as represented by the …, priority 1997, dated 2005).
Where “and” joins values, the source holds several entries; their conditions need not be identical. Identical values can stand only once. Like-named read-outs stand apart in the source and are kept apart here.

Columns and labels:
HIV-1 WT virus (NL4-3) = assay: microbe, parasite or virus in culture; type: cell-based; conditions: for EC50: read-out: EC50; for inhibitory potency against HIV-1 (CIC50), result in words: CEMSS cell culture, WT virus (NL4-3), relative to parent compounds 1 and 2
Procedure: Evaluation of these compounds for the inhibition of HIV-1 was determined as the fifty percent cell culture inhibitory concentration (CIC50) in CEMSS cell culture with WT virus (NL4-3).
(§1) In this Example, the antiviral and cellular toxicity of NNRTIs was investigated, using the cytopathic cell killing assay described by Yang (Yang et al., “Characteristics of a Group of Non-nucleoside Reverse Transcriptase Inhibitors with Structural Diversity and Potent Anti-Human Immunodeficiency Virus Activity,” Leukemia 9:S75-S85 [1995]). Briefly, in this method cells (e.g., the CEM-SS cell line, available from the NIAID AIDS Research and Reference Program [ARRRP]) were seeded at a density of 5×10^3 cells/well, into the wells of a 96-well microtiter plate. The cells were then infected with HIV virus (either mutant or WT), at a multiplicity of infection (MOI) previously determined to provide complete cell killing by 6 days of culture post-infection (e.g., MOI of 0.01-0.05). Each of the HIV isolates was pre-titered to induce equivalent levels of infection based on cell killing or virus production, prior to their use in these assays. A range of test compound concentrations was added to the wells in triplicate (e.g., serial half-log dilutions) to evaluate inhibition of HIV infection. Controls for each assay included drug controls (drug colorimetric control wells), drug cytotoxicity control wells (cells with drug), virus control wells (cells with virus), and cell viability controls (cells only). Positive control drugs (e.g. AZT and ddC) were also run in parallel.
(§2) After six days of incubation at 37° C., cell viability was determined spectrophotometrically at 450 nm for each well, using the metabolic reduction of XTT to a soluble colored formazan. (See, Gartner and Popovic, “Virus Isolation and Production, in Aldovini and Walker (eds.), Techniques in HIV Research, Stockton Press, NY, pp. […] [1991]; and Nara and Fischinger, “Quantitative Infectivity Assay for HIV-1 and HIV-2, ” Nature 332:469-470 [1988]).
(§3) The in vitro therapeutic index (TI50) was defined as the fold-difference between the EC50 and IC50. The results for the various compounds are included in FIGS. 8 and 19.

HIV-1 WT RT = HIV-1 WT RT (Human immunodeficiency virus type 1 group M subtype B, UniProt P03366); assay: biochemical; type: biochemical
HIV-1 isolate Y188C = assay: Cytopathic cell killing assay, MT-4 cells, isolate Y188C; type: cell-based; conditions: values in μM
Excerpt: (§4) The various HIV isolates tested in the Figures are those corresponding to wild-type virus (NL4-3) and the other strains listed by their RT mutations. The three 4×AZT isolates included in the Figures represent AZT drug-resistant variants. For example, the 4×AZT/L100I isolate has five mutations: four mutations confer increased resistance to AZT, and the other mutation is located within the NNRTI binding pocket. TZB and nevir. (nevirapine) are two well-known NNRTIs, included in this experiment for comparison purposes.
as §1, §2, §3

HIV-1 isolate K103N = assay: Cytopathic cell killing assay, MT-4 cells, isolate K103N; type: cell-based; conditions: for EC50: values in μM
Excerpt: as §4, §1, §2, §3

HIV-1 NL4-3 (WT) = assay: Cytopathic cell killing assay, MT-4 cells, isolate NL4-3 (WT); type: cell-based
Excerpt: as §4, §1, §2, §3

HIV-1 isolate Y181C = assay: Cytopathic cell killing assay, MT-4 cells, isolate Y181C; type: cell-based
Excerpt: as §4, §1, §2, §3

HIV-1 isolate L100I = assay: Cytopathic cell killing assay, MT-4 cells, isolate L100I; type: cell-based
Excerpt: as §4, §1, §2, §3

HIV-1 isolate K101E = assay: Cytopathic cell killing assay, MT-4 cells, isolate K101E; type: cell-based
Excerpt: as §4, §1, §2, §3

HIV-1 isolate V108I = assay: Cytopathic cell killing assay, MT-4 cells, isolate V108I; type: cell-based; conditions: values in μM
Excerpt: as §4, §1, §2, §3

[1] = system: WT and HIV-1 variants containing amino acid substitutions in RT; type: cell-based; conditions: cytopathic cell killing assay, NNRTI-resistant HIV isolates
Excerpt: In these Tables, antiviral data are reported as the quantity of drug in μM required to reduce cell killing or virus production by 50% (EC50). The various HIV isolates tested in the Figures are those corresponding to wild-type virus (NL4-3) and the other strains listed by their RT mutations. The three 4×AZT isolates included in the Figures represent AZT drug-resistant variants.
Briefly, in this method cells (e.g., the CEM-SS cell line, available from the NIAID AIDS Research and Reference Program [ARRRP]) were seeded at a density of 5×10^3 cells/well, into the wells of a 96-well microtiter plate. The cells were then infected with HIV virus (either mutant or WT), at a multiplicity of infection (MOI) previously determined to provide complete cell killing by 6 days of culture post-infection (e.g., MOI of 0.01-0.05). Each of the HIV isolates was pre-titered to induce equivalent levels of infection based on cell killing or virus production, prior to their use in these assays. A range of test compound concentrations was added to the wells in triplicate (e.g., serial half-log dilutions) to evaluate inhibition of HIV infection. Controls for each assay included drug controls (drug colorimetric control wells), drug cytotoxicity control wells (cells with drug), virus control wells (cells with virus), and cell viability controls (cells only). Positive control drugs (e.g. AZT and ddC) were also run in parallel.
as §2
Antiviral and toxicity data were reported as the quantity of drug required to inhibit 50% of virus-induced cell killing or virus production (EC50), and the quantity of drug required to […] (IC50). The in vitro therapeutic index (TI50) was defined as the fold-difference between the EC50 and IC50.

HIV-1 isolate V179D = assay: Cytopathic cell killing assay, MT-4 cells, isolate V179D; type: cell-based; conditions: MT-4 cells
Excerpt: as §4, §1, §2, §3

[2] = Table 11, CEMSS/NL4-3, NRVC = no reduction in viral CPE
[3] = Table 11, WT RT, read-out: IC50
[4] = Human immunodeficiency virus 1, MT4, read-out: EC50, isolate Y188C, Table 10
[5] = Human immunodeficiency virus 1, MT4, read-out: EC50, isolate K103N, Table 10
[6] = Human immunodeficiency virus 1, NL43, MT4, Table 8, MT-4 cells, read-out: EC50, isolate NL4-3
[7] = Human immunodeficiency virus 1, MT4, read-out: EC50, isolate Y181C, Table 8, MT-4 cells
[8] = Human immunodeficiency virus 1, MT4, read-out: EC50, isolate Y181C, Table 10, values in μM
[9] = Human immunodeficiency virus 1, NL43, CEM-SS, Table 7, drug concentration required to reduce cell killing or virus production by 50%, WT
[10] = Human immunodeficiency virus 1, NL43, CEM-SS, Table 11, CEMSS/NL4-3, NRVC = no reduction in viral CPE
[11] = Human immunodeficiency virus 1, MT4, read-out: EC50, isolate V108I, Table 10

Cc1cccc2c1nc(CO)n2Cc1c(F)cccc1F [Compound 48, 1-(2,6-difluorobenzyl)-2-hydroxymethyl-4-methylbenzimidazole]
EC50 (HIV-1 WT virus (NL4-3); [2]): 2.4 µM
inhibition at 10 µM (HIV-1 WT RT; Table 3, 10 μM drug, WT RT, rC-dG template primer, read-out: % inhibn (10 μM)): 12%
% inhibn (1 μM) (HIV-1 WT RT; Table 6, 1 μM drug, WT HIV-1 RT, average of two experiments done in triplicates): 51%
IC50 (HIV-1 WT RT; [3]): 1.88 µM

Cc1ccccc1-c1nc2ccccc2n1Cc1c(F)cccc1F [Compound 36, 1-(2,6-difluorobenzyl)-2-(2-methylphenyl)benzimidazole]
melting point: 139 °C
RT inhibition, result in words (HIV-1 WT RT; WT RT): two-fold decrease in RT inhibition

Cc1cccc2c1nc(-c1c(F)cccc1F)n2Cc1c(Cl)cccc1Cl [Compound 30, 1-(2,6-dichlorobenzyl)-2-(2,6-difluorophenyl)-4-methylbenzimidazole]
melting point: 202 to 203 °C
RT inhibition, result in words (HIV-1 WT RT; WT RT): decrease in inhibition

[N-]=[N+]=NCc1cccc2c1nc(-c1c(F)cccc1F)n2Cc1c(F)cccc1F [Compound 70, 1-(2,6-difluorobenzyl)-2-(2,6-difluorophenyl)benzimidazol-4-yl-azidomethyl]
EC50 (HIV-1 isolate Y188C; Table 10, read-out: EC50, isolate Y188C): 0.22 µM
EC50 (HIV-1 isolate K103N; Table 10, read-out: EC50, isolate K103N): 1.48 µM
EC50 (HIV-1 NL4-3 (WT); Table 10, values in μM, read-out: EC50, isolate NL4-3 (WT)): 0.045 µM
EC50 (HIV-1 isolate Y181C; Table 10, values in μM, read-out: EC50, isolate Y181C): 0.82 µM
EC50 (HIV-1 isolate L100I; Table 10, values in μM, read-out: EC50, isolate L100I): 0.06 µM
EC50 (HIV-1 isolate K101E; Table 10, values in μM, read-out: EC50, isolate K101E): 0.6 µM
EC50 (HIV-1 WT virus (NL4-3); [2]): 0.045 µM
EC50 (HIV-1 isolate V108I; Table 10, read-out: EC50, isolate V108I): 0.026 µM

Fc1cccc(F)c1Cn1c(-c2c(F)cccc2F)nc2c(Cl)cccc21 [Compound 3500, 4-chloro-1-(2,6-difluorobenzyl)-2-(2,6-difluorophenyl)benzimidazole]
EC50 (HIV-1 isolate Y188C; [4]): 3.4 µM
EC50 (HIV-1 isolate K103N; [5]): 10.2 µM
melting point: 163 to 164 °C and 163 °C
cross-resistance profile, result in words [1]: inhibit HIV-1 better than TZB
EC50 (HIV-1 NL4-3 (WT); [6]): 0.4 µM
EC50 (HIV-1 isolate Y181C; [7]): 7.3 µM
EC50 (HIV-1 isolate Y181C; [8]): 8.4 µM
inhibitory potency against HIV-1 (CIC50), result in words (HIV-1 WT virus (NL4-3)): modest potency-enhancing effect
EC50 (HIV-1 WT virus (NL4-3); [9]): 0.44 µM
EC50 (HIV-1 WT virus (NL4-3); [10]): 0.44 µM
EC50 (HIV-1 isolate V108I; [11]): 3.2 µM

CNc1cccc2c1nc(-c1c(F)cccc1F)n2Cc1c(F)cccc1F [Compound 5012, 1-(2,6-difluorobenzyl)-2-(2,6-difluorophenyl)-4-(N-methylamino)benzimidazole]
cross-resistance profile, result in words [1]: inhibit HIV-1 better than TZB
inhibitory potency against HIV-1 (CIC50), result in words (HIV-1 WT virus (NL4-3)): significantly poorer inhibitors
EC50 (HIV-1 WT virus (NL4-3); [9]): 1.7 µM
EC50 (HIV-1 WT virus (NL4-3); [10]): 1.7 µM
IC50 (HIV-1 WT RT): 4.94 µM
% inhibn (1 μM) (HIV-1 WT RT; Table 7, 1 μM drug, WT HIV-1 RT): 24%
EC50 (HIV-1 isolate V179D; Human immunodeficiency virus 1, MT4, read-out: EC50, isolate V179D, Table 8): 3.8 µM

Cc1cccc2c1nc(-c1c(F)cccc1F)n2Cc1ccccc1 [Compound 29, 1-benzyl-2-(2,6-difluorophenyl)-4-methylbenzimidazole]
melting point: 112 to 117 °C
RT inhibition, result in words (HIV-1 WT RT; WT RT): decrease in inhibition

Fc1cccc(F)c1Cn1c(-c2c(F)cccc2F)nc2c(Br)cccc21 [Compound 3400, 4-bromo-1-(2,6-difluorobenzyl)-2-(2,6-difluorophenyl)benzimidazole]
EC50 (HIV-1 isolate Y188C; [4]): 3.7 µM
melting point: 147 to 148 °C
EC50 (HIV-1 isolate Y181C; [8]): 10.7 µM
EC50 (HIV-1 WT virus (NL4-3); [9]): 0.37 µM
EC50 (HIV-1 isolate V108I; [11]): 4.2 µM

Fc1cccc(F)c1-c1nc2ccccc2n1Cc1ccccc1 [Compound 28, 1-benzyl-2-(2,6-difluorophenyl)benzimidazole]
melting point: 124 °C
RT inhibition, result in words (HIV-1 WT RT; WT RT): decrease in inhibition

CC1Cn2c(=O)[nH]c3cccc(c32)CN1 (centres unmarked) [TIBO, 4,5,6,7-tetrahydro-5-methylimidazo[4,5,1-jk][1,4]benzodiazepin-2(1H)-one, reference compound]
EC50 (HIV-1 isolate L100I; Human immunodeficiency virus 1, MT4, read-out: EC50, isolate L1001, Table 4, MT-4 cells): ≥ 17.4 µM

CN(C)c1cccc2c1nc(-c1c(F)cccc1F)n2Cc1c(F)cccc1F [Compound 3700, 1-(2,6-difluorobenzyl)-2-(2,6-difluorophenyl)-4-N,N-dimethylaminobenzimidazole]
EC50 (HIV-1 isolate K103N; [5]): > 100 µM
melting point: 155 to 156 °C
EC50 (HIV-1 NL4-3 (WT); Human immunodeficiency virus 1, NL43, MT4, Table 10, values in μM, read-out: EC50, isolate NL4-3 (WT)): 2.88 µM
EC50 (HIV-1 isolate Y181C; [8]): > 100 µM
EC50 (HIV-1 isolate L100I; Human immunodeficiency virus 1, MT4, read-out: EC50, isolate L100I, Table 10, values in μM): 31.6 µM
EC50 (HIV-1 WT virus (NL4-3); [9]): 2.37 µM
EC50 (HIV-1 WT virus (NL4-3); [10]): 2.37 µM
inhibition at 1 µM (HIV-1 WT RT; Table 7, 1 μM drug, WT HIV-1 RT, read-out: % inhibn (1 μM)): 77%
IC50 (HIV-1 WT RT; read-out: IC50): 40 µM

Cc1ccnc2c1NC(=O)c1cccnc1N2C1CC1 [nevir., nevirapine, reference compound]
activity against K103N, result in words (HIV-1 isolate K103N; cytopathic cell killing assay): ineffective
EC50 (HIV-1 NL4-3 (WT); [6]): 0.04 µM
EC50 (HIV-1 isolate Y181C; [7]): 4.9 µM
EC50 (HIV-1 isolate K101E; Human immunodeficiency virus 1, MT4, read-out: EC50, isolate K101E, Table 8, MT-4 cells): 1.1 µM
EC50 (HIV-1 WT virus (NL4-3); [10]): 0.035 µM
EC50 (HIV-1 isolate V179D; Human immunodeficiency virus 1, MT4, read-out: EC50, isolate V179D, Table 9): 0.2 µM

Nc1cccc2c1nc(-c1c(F)cccc1F)n2Cc1c(F)cccc1F [Example 53]
melting point: 139 to 141 °C
EC50 (HIV-1 WT virus (NL4-3); [10]): 0.46 µM
IC50 (HIV-1 WT RT; [3]): 0.28 µM
